# Source: patent US20230015541A1, “16% Sodium Citrate Solution for Use as an Antimicrobial Catheter Lock Solution” (Becton, Dickinson and Company, priority 2021, published 2023)
# Assays:
# Gram-negative bacteria = assay: MIC determination of sodium citrate by broth microdilution; assay type: cell-based; conditions: 16% w/v sodium citrate, pH 6.4-7.5; concluded from MICs of FIGS. 2A and 2B
# Description: (§1) In vitro testing was conducted with sodium citrate on samples of various microorganisms to determine a minimum inhibitory concentration (MIC) of sodium citrate (at pH 6.4-7.5) for those microorganisms. […] Testing was performed as set forth in ‘Methods for Dilution Antimicrobial Susceptibility Tests for Bacteria That Grow Aerobically,’ 11th Edition, Clinical and Laboratory Standards Institute (2018), ‘Methods for Determining Bactericidal Activity of Antimicrobial Agents' Approved Guideline.’ Vol. 12, No. 9, Clinical and Laboratory Standards Institute (1999), and ‘Development of In Vitro Susceptibility Testing Criteria and Quality Control Parameters; Approved Guideline-Second Edition,’ Vol. 21, No. 7, Clinical and Laboratory Standards Institute (2001).
# (§2) For MIC determinations, sodium citrate was reconstituted and diluted to various working stock concentrations (8%, 10%, 12%, 14%, 16%, 20%, 24%, and 28% in deionized water and transferred into round-bottom 96-well microdilution plates. Three strains each of Gram-positive bacteria, Gram-negative bacteria, and yeast were obtained from the American Tissue Type Collection (ATCC) or the Centers for Disease Control Antibiotic Resistant (CDC AR) Isolate Bank. Cultures were grown on Trypticase Soy Agar (TSA, for bacteria) or Sabouraud Dextrose Agar (SDA, for yeast) and suspended in Mueller Hinton Broth to a final cell density of approximately 5×10^5 CFU/mL during exposure to sodium citrate. Following incubation at 35±2° C. for 24±2 h (bacteria) or 44±4 h (yeast), microdilution plates were visually examined for the presence or inhibition of growth.
# (§3) As will be appreciated, the MIC is shown, thus testing of higher concentrations was deemed unnecessary, because if, for example 4% sodium citrate is the MIC for a given microorganism, then 16% would be at least as effective. Three (3) replicates were run for each bacteria evaluated and four (4) replicates were run for each fungi evaluated, using two (2) different growth media for the fungi. […]
# Gram-positive bacteria = assay: as above; assay type: cell-based; conditions: 16% w/v sodium citrate, pH 6.4-7.5; concluded from MICs of FIGS. 2A and 2B
# Description: as §1, §2, §3
# yeast = assay: as above; assay type: cell-based; conditions: 16% w/v sodium citrate, pH 6.4-7.5; concluded from MICs of FIGS. 2A and 2B
# Description: as §1, §2, §3
# [1] = tested on: S. aureus (Gram-positive bacteria); assay: Growth inhibition timeframe at various concentrations of sodium citrate; assay type: cell-based, Staphylococcus aureus; conditions: through 24 hours; for growth of S. aureus: pH 6.4-7.5
# Description: FIG. 3 is a table showing growth inhibition timeframe of Gram-positive Staphylococcus aureus exposed to various concentrations of sodium citrate.
# (§4) In vitro testing was conducted with various concentrations of sodium citrate on S. aureus (Gram-positive bacteria) (FIG. 3), P. aeruginosa (Gram-negative bacteria) (FIG. 4), and yeast, C. albicans (FIG. 5). Testing was conducted as set forth in ‘Methods for Dilution Antimicrobial Susceptibility Tests for Bacteria That Grow Aerobically,’ 11th Edition, Clinical and Laboratory Standards Institute (2018), ‘Methods for Determining Bactericidal Activity of Antimicrobial Agents' Approved Guideline.’ Vol. 12, No. 9, Clinical and Laboratory Standards Institute (1999), and ‘Development of In Vitro Susceptibility Testing Criteria and Quality Control Parameters; Approved Guideline-Second Edition,’ Vol. 21, No. 7, Clinical and Laboratory Standards Institute (2001). Briefly, trisodium citrate salt was compounded using purified water and the pH was adjusted, if necessary, with hydrochloric acid to provide a composition with a pH between 6.4 and 7.5. […] Due to this, it is expected that growth inhibition and possibly eradication can occur beyond 24 hours.
# [2] = tested on: P. aeruginosa (Gram-negative bacteria); assay: as above; assay type: cell-based, Pseudomonas aeruginosa; conditions: through 24 hours; for growth of P. aeruginosa: pH 6.4-7.5
# Description: FIG. 4 is a table showing growth inhibition timeframe of Gram-negative Pseudomonas aeruginosa exposed to various concentrations of sodium citrate.
# as §4
# Due to this, it is expected that growth inhibition and possibly eradication can occur beyond 24 hours.
# yeast, C. albicans = assay: as above; assay type: cell-based, Candida albicans; conditions: through 24 hours, pH 6.4-7.5
# Description: FIG. 5 is a table showing growth inhibition timeframe of the fungus Candida albicans exposed to various concentrations of sodium citrate.
# as §4
# whole human blood = assay: Anticoagulation effect in vitro as activated clotting time (ACT), Sonoclot analyzer; assay type: cell-based; conditions: 4% (w/v), versus controls (no solution and saline)
# Description: The anticoagulation effect of a 4% sodium citrate lock solution was measured in vitro as activated clotting time (ACT) using whole human blood over 2 years. The anticoagulation effectiveness of 4% sodium citrate lock solution on whole blood was determined using the Sonoclot® Coagulation & Platelet Function Analyzer (Sienco Inc., Boulder Colo.), which can calculate the onset of clot formation by monitoring mechanical changes that occur in blood samples during hemostasis. The mechanism is a tubular probe that moves up and down within a blood sample. As the sample progresses through various stages of clotting, electronic circuitry (a transducer) detects increasing resistance. This produces a series of electronic signals that are processed by a microcomputer. The output is the total time of clot formation where the blood is more viscous than initially introduced.
smiles,measurement,setting,value
"O=C([O-])CC(O)(CC(=O)[O-])C(=O)[O-].[Na+].[Na+].[Na+] [sodium citrate, trisodium citrate]",growth and proliferation of Gram-negative bacteria,Gram-negative bacteria,will prevent growth and proliferation
same,growth and proliferation of Gram-positive bacteria,Gram-positive bacteria,will prevent growth and proliferation
same,growth and proliferation of yeast,yeast,will prevent growth and proliferation
same,bacteria count of S. aureus,[1]; 6% (w/v),decrease
same,growth of S. aureus,[1]; 6% (w/v),does not grow
same,bacteria count of S. aureus,[1]; 8% (w/v),decrease
same,growth of S. aureus,[1]; 8% (w/v),does not grow
same,bacteria count of S. aureus,[1]; 10% (w/v),decrease
same,growth of S. aureus,[1]; 10% (w/v),does not grow
same,bacteria count of P. aeruginosa,[2]; 10% (w/v),decrease
same,growth of P. aeruginosa,[2]; 10% (w/v),does not grow
same,bacteria count of P. aeruginosa,[2]; 12% (w/v),decrease
same,growth of P. aeruginosa,[2]; 12% (w/v),does not grow
same,bacteria count of P. aeruginosa,[2]; 14% (w/v),decrease
same,growth of P. aeruginosa,[2]; 14% (w/v),does not grow
same,growth of C. albicans,"yeast, C. albicans; 2% (w/v)",does not grow
same,growth of C. albicans,"yeast, C. albicans; 4% (w/v)",does not grow
same,growth of C. albicans,"yeast, C. albicans; 6% (w/v)",does not grow
same,time required for clot formation (activated clotting time),whole human blood,longer relative to the controls
